Results on 16 compounds are retold here after ChEMBL document CHEMBL1138973, “Opiate receptor binding properties of morphine-, dihydromorphine-, and codeine 6-O-sulfate ester congeners” (Bioorg Med Chem Lett, 2006).

Series [1] concerns the target Mu-type opioid receptor (Cavia porcellus, UniProt P97266). Kind of series: Displacement of radiolabeled DAMGO from mu opioid receptor in Hartley guinea pig brain.
Series [2] concerns the target Kappa-type opioid receptor (Cavia porcellus, UniProt P41144). Kind of series: Displacement of radiolabeled U69593 from kappa1 opioid receptor in Hartley guinea pig brain.
The nature of series [3]: Plasma half life in rat. Format: ADME, organism-based.

Chain of Mu-type opioid receptor (P97266 whole entry): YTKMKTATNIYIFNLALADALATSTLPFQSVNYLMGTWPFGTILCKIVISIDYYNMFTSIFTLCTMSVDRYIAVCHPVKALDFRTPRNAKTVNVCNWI
Chain of Kappa-type opioid receptor (P41144 whole entry): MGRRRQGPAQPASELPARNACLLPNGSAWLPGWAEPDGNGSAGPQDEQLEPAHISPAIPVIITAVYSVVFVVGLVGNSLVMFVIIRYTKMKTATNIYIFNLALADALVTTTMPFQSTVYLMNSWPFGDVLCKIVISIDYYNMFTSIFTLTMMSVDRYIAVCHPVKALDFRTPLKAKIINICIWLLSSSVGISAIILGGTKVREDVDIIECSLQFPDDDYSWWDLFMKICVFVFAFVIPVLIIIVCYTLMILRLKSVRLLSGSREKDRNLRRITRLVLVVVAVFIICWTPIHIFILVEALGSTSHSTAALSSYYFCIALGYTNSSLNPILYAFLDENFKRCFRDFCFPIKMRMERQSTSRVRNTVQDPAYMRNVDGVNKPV

For `CN1CC[C@]23c4c5ccc(OS(=O)(=O)O)c4O[C@H]2[C@@H](O)C=C[C@H]3[C@H]1C5`, the inhibitory constant (Ki) – broadly, a dissociation constant, usually derived from enzyme kinetics or from competition with a known ligand – in series [1] was 101 nM; in series [2], > 10000 nM.
On the same counts, the results for `COc1ccc2c3c1O[C@H]1[C@@H](OS(=O)(=O)O)CC[C@H]4[C@@H](C2)N(C)CC[C@@]341` are 196 nM and > 10000 nM.
Taken in the same sequence, the figures for `COc1ccc2c3c1O[C@H]1[C@@H](OS(=O)(=O)O)C=C[C@H]4[C@@H](C2)N(C)CC[C@@]341` were 38.7 nM and > 10000 nM.
On to `CN1CC[C@]23c4c5ccc(O)c4O[C@H]2[C@@H](OS(=O)(=O)O)C=C[C@H]3[C@H]1C5`, for which the inhibitory constant (Ki) in series [1] is 0.9 nM.
On to `CC1(C)SSC(C)(C)[C@@H](NC(=O)[C@@H](N)Cc2ccc(O)cc2)C(=O)NCC(=O)N[C@@H](Cc2ccc(Cl)cc2)C(=O)N[C@H]1C(=O)O`, for which the Ki in series [2] is > 10000 nM.
On to `CN1CC[C@]23c4c5ccc(OC(=O)c6ccccc6)c4O[C@H]2[C@@H](OS(=O)(=O)O)C=C[C@H]3[C@H]1C5`, for which the Ki in series [1] was 36.9 nM; in series [2] it was > 10000 nM.
On to `C[N+]1(C)CC[C@]23c4c5ccc(OC(=O)c6ccccc6)c4O[C@H]2[C@@H](OS(=O)(=O)[O-])C=C[C@H]3[C@H]1C5`, for which the Ki in series [1] was 444 nM; in series [2], > 10000 nM.
With `CC(C)C(=O)Oc1ccc2c3c1O[C@H]1[C@@H](OS(=O)(=O)O)C=C[C@H]4[C@@H](C2)N(C)CC[C@@]341`, the affinity in series [1], expressed as Ki, was 19.8 nM.
On the same count and under the same terms, the same measure for `CN1CC[C@]23c4c5ccc(OC(=O)C(C)(C)C)c4O[C@H]2[C@@H](OS(=O)(=O)O)C=C[C@H]3[C@H]1C5`: 0.7 nM.
`CN1CC[C@]23c4c5ccc(OC(=O)c6ccccc6)c4O[C@H]2[C@@H](OS(=O)(=O)O)CC[C@H]3[C@H]1C5`: the results for the Ki in series [1] and in series [2] were 61.8 nM and > 10000 nM, respectively.
In turn, `CC(=O)Oc1ccc2c3c1O[C@H]1[C@@H](OS(=O)(=O)O)C=C[C@H]4[C@@H](C2)N(C)CC[C@@]341` came in with a Ki in series [1] of 0.8 nM. In series [3], the half-life (as a rule, how long it takes for the measured level to halve) is > 1 h.
On to `C=CCN1CCC23c4c5ccc(O)c4O[C@@H]2/C(=N/NC(=O)c2ccccc2)CCC3(O)C1C5` (some centres undefined), for which the values for the inhibitory constant (Ki) in series [1] and in series [2] were 0.2 nM and 0.4 nM, respectively.
On to `CC(=O)Oc1ccc2c3c1O[C@H]1[C@@H](OS(=O)(=O)[O-])C=C[C@H]4[C@@H](C2)[N+](C)(C)CC[C@@]341`, for which the Ki is 34.2 nM in series [1] and > 10000 nM in series [2]. For the same compound, the half-life in series [3] was > 1 h.
In series [1], `CCC(=O)Oc1ccc2c3c1O[C@H]1[C@@H](OS(=O)(=O)O)C=C[C@H]4[C@@H](C2)N(C)CC[C@@]341` showed an inhibition constant (Ki) of 0.6 nM.
For `CN1CC[C@]23c4c5ccc(O)c4O[C@H]2[C@@H](OS(=O)(=O)O)CC[C@H]3[C@H]1C5`, the Ki in series [1] came to 1.5 nM; in series [2], 3130 nM.
`CC(=O)Oc1ccc2c3c1O[C@H]1[C@@H](OS(=O)(=O)O)CC[C@H]4[C@@H](C2)N(C)CC[C@@]341`: the inhibition constant (Ki) in series [1] was 13.7 nM; in series [2] it was > 10000 nM. For the same compound, the half-life in series [3] was > 1 h.
